Test results published in ChEMBL document CHEMBL1201862, “PubChem BioAssay data set” (2004).
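Briefly, cells in 96-well plates were exposed to five compound concentrations for 48 h, and endpoints were estimated by linear interpolation. GI50 = concentration required for 50% inhibition of growth.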 Active and inactive are the calls of the source. No stated cut-off is given here; in the data, active = GI50 up to about 1.1 µM and inactive = higher.

Legend:
Experiment in all cases: NCI-60 cell line screen, 48 h
M14 = tested on: M14
BT-549 = tested on: BT-549
786-0 = tested on: 786-0
OVCAR-8 = tested on: OVCAR-8
HOP-62 = tested on: HOP-62
HCC 2998 = tested on: HCC 2998
NCI-H460 = tested on: NCI-H460
T47D = tested on: T47D
EKVX = tested on: EKVX
HT-29 = tested on: HT-29
NCI-H226 = tested on: NCI-H226
MDA-N = tested on: MDA-N
DU-145 = tested on: DU-145
NCI-H522 = tested on: NCI-H522
SK-MEL-2 = tested on: SK-MEL-2
OVCAR-4 = tested on: OVCAR-4
NCI-H23 = tested on: NCI-H23
OVCAR-5 = tested on: OVCAR-5
SNB-19 = tested on: SNB-19

SMILES: CCN(CC)CCOCCOCC1(c2ccc(Cl)c(Cl)c2)CCCCC1
- GI50 (M14): 1.7 µM (inactive)
- GI50 (BT-549): 12.7 µM (inactive)
- GI50 (786-0): 3.28 µM (inactive)
- GI50 (OVCAR-8): 13.8 µM (inactive)
- GI50 (HOP-62): 7.67 µM (inactive)
- GI50 (HCC 2998): 4.07 µM (inactive)
- GI50 (NCI-H460): 3.39 µM (inactive)
- GI50 (T47D): 3.48 µM (inactive)
- GI50 (EKVX): 8.17 µM (inactive)
- GI50 (HT-29): 2.29 µM (inactive)
- GI50 (NCI-H226): 17.9 µM (inactive)
- GI50 (MDA-N): 3.65 µM (inactive)
- GI50 (DU-145): 8.71 µM (inactive)
- GI50 (NCI-H522): 7.91 µM (inactive)
- GI50 (SK-MEL-2): 14.9 µM (inactive)
- GI50 (OVCAR-4): 12.6 µM (inactive)
- GI50 (NCI-H23): 11 µM (inactive)
- GI50 (OVCAR-5): 11.5 µM (inactive)
- GI50 (SNB-19): 13.4 µM (inactive)

SMILES: NC(=S)N1N=C(c2ccccc2O)CC1c1ccccc1 (centres undefined)
- GI50 (M14): 11.3 µM (inactive)
- GI50 (BT-549): 20.8 µM (inactive)
- GI50 (786-0): 21.1 µM (inactive)
- GI50 (OVCAR-8): 25.5 µM (inactive)
- GI50 (HOP-62): 4.95 µM (inactive)
- GI50 (HCC 2998): 11.6 µM (inactive)
- GI50 (NCI-H460): 14 µM (inactive)
- GI50 (T47D): 17.6 µM (inactive)
- GI50 (EKVX): 20.4 µM (inactive)
- GI50 (HT-29): 11 µM (inactive)
- GI50 (NCI-H226): 15 µM (inactive)
- GI50 (MDA-N): 2.83 µM (inactive)
- GI50 (DU-145): 27 µM (inactive)
- GI50 (NCI-H522): 3.99 µM (inactive)
- GI50 (SK-MEL-2): 5.25 µM (inactive)
- GI50 (OVCAR-4): 18.2 µM (inactive)
- GI50 (NCI-H23): 18.5 µM (inactive)
- GI50 (OVCAR-5): 17.9 µM (inactive)
- GI50 (SNB-19): 23.3 µM (inactive)

SMILES: O=S(=O)(O)c1c(Cl)c(Cl)c(O)c2ncccc12
- GI50 (M14): 12 µM (inactive)
- GI50 (BT-549): 20.2 µM (inactive)
- GI50 (786-0): 8.02 µM (inactive)
- GI50 (OVCAR-8): 10.3 µM (inactive)
- GI50 (HOP-62): 5 µM (inactive)
- GI50 (HCC 2998): 13.5 µM (inactive)
- GI50 (NCI-H460): 7.36 µM (inactive)
- GI50 (T47D): 7.08 µM (inactive)
- GI50 (EKVX): 12.2 µM (inactive)
- GI50 (HT-29): 9.89 µM (inactive)
- GI50 (NCI-H226): 20.9 µM (inactive)
- GI50 (MDA-N): 14.6 µM (inactive)
- GI50 (DU-145): 16.6 µM (inactive)
- GI50 (NCI-H522): 4.12 µM (inactive)
- GI50 (SK-MEL-2): 12.5 µM (inactive)
- GI50 (OVCAR-4): 8.99 µM (inactive)
- GI50 (NCI-H23): 11.2 µM (inactive)
- GI50 (OVCAR-5): 16.7 µM (inactive)
- GI50 (SNB-19): 11.8 µM (inactive)

SMILES: CCOC(=O)c1sc2nc(SC)nc3c2c1NCN3c1ccc2c(c1)OCCCO2
- GI50 (M14): 38.2 µM (inactive)
- GI50 (BT-549): 51.2 µM (inactive)
- GI50 (786-0): 6.31 µM (inactive)
- GI50 (OVCAR-8): 7.46 µM (inactive)
- GI50 (HOP-62): 27.9 µM (inactive)
- GI50 (HCC 2998): 26.3 µM (inactive)
- GI50 (NCI-H460): 25.7 µM (inactive)
- GI50 (T47D): 68.1 µM (inactive)
- GI50 (EKVX): > 100 µM (inactive)
- GI50 (NCI-H226): 3.53 µM (inactive)
- GI50 (MDA-N): > 100 µM (inactive)
- GI50 (DU-145): > 100 µM (inactive)
- GI50 (NCI-H522): > 100 µM (inactive)
- GI50 (SK-MEL-2): > 100 µM (inactive)
- GI50 (OVCAR-4): > 100 µM (inactive)
- GI50 (NCI-H23): 70.8 µM (inactive)
- GI50 (OVCAR-5): > 100 µM (inactive)
- GI50 (SNB-19): 8.09 µM (inactive)

SMILES: COc1ccc2c(c1)CCc1cc(C(N)=O)c3nnnn3c1-2
- GI50 (M14): > 100 µM (inactive)
- GI50 (BT-549): 35.5 µM (inactive)
- GI50 (786-0): 33.6 µM (inactive)
- GI50 (OVCAR-8): > 52.7 µM (inactive)
- GI50 (HOP-62): 25.5 µM (inactive)
- GI50 (HCC 2998): 39.8 µM (inactive)
- GI50 (NCI-H460): 12.2 µM (inactive)
- GI50 (T47D): 25.2 µM (inactive)
- GI50 (EKVX): < 0.0224 µM (active)
- GI50 (HT-29): > 100 µM (inactive)
- GI50 (NCI-H226): > 100 µM (inactive)
- GI50 (MDA-N): > 100 µM (inactive)
- GI50 (DU-145): 23.7 µM (inactive)
- GI50 (NCI-H522): 27.9 µM (inactive)
- GI50 (SK-MEL-2): > 42.1 µM (inactive)
- GI50 (OVCAR-4): > 81.3 µM (inactive)
- GI50 (NCI-H23): 60.1 µM (inactive)
- GI50 (OVCAR-5): > 100 µM (inactive)
- GI50 (SNB-19): 64.7 µM (inactive)

SMILES: CC[C@H](C)[C@H](NC(=O)N(CCC#N)CCN(CCN(C(=O)N[C@@H](Cc1ccccc1)C(=O)OC)c1ccccc1)C(=O)N[C@H](C(=O)OC)C(C)C)C(=O)OC
- GI50 (M14): 20.5 µM (inactive)
- GI50 (BT-549): 22.9 µM (inactive)
- GI50 (786-0): 4.68 µM (inactive)
- GI50 (OVCAR-8): 22.6 µM (inactive)
- GI50 (HOP-62): 20.5 µM (inactive)
- GI50 (HCC 2998): 19 µM (inactive)
- GI50 (T47D): 14.3 µM (inactive)
- GI50 (EKVX): 29.7 µM (inactive)
- GI50 (NCI-H226): 21.5 µM (inactive)
- GI50 (MDA-N): 16.5 µM (inactive)
- GI50 (DU-145): 20 µM (inactive)
- GI50 (SK-MEL-2): 20 µM (inactive)
- GI50 (OVCAR-4): 22.4 µM (inactive)
- GI50 (NCI-H23): 19.9 µM (inactive)
- GI50 (OVCAR-5): 25 µM (inactive)
- GI50 (SNB-19): 15.2 µM (inactive)

SMILES: CNC(=O)N(CCC#N)[C@H]1CCCC[C@@H]1N(C(=O)NC)c1ccccc1
- GI50 (M14): > 100 µM (inactive)
- GI50 (BT-549): > 100 µM (inactive)
- GI50 (786-0): > 100 µM (inactive)
- GI50 (OVCAR-8): > 100 µM (inactive)
- GI50 (HOP-62): > 100 µM (inactive)
- GI50 (HCC 2998): > 100 µM (inactive)
- GI50 (NCI-H460): > 100 µM (inactive)
- GI50 (T47D): > 100 µM (inactive)
- GI50 (EKVX): > 100 µM (inactive)
- GI50 (HT-29): > 100 µM (inactive)
- GI50 (NCI-H226): > 100 µM (inactive)
- GI50 (MDA-N): > 100 µM (inactive)
- GI50 (DU-145): > 100 µM (inactive)
- GI50 (NCI-H522): > 100 µM (inactive)
- GI50 (SK-MEL-2): > 100 µM (inactive)
- GI50 (OVCAR-4): > 100 µM (inactive)
- GI50 (NCI-H23): > 100 µM (inactive)
- GI50 (OVCAR-5): > 100 µM (inactive)
- GI50 (SNB-19): > 100 µM (inactive)
